In patent US12128028B2, “Heterocyclic sulfonamide derivatives and pharmaceutical uses thereof” (METRION BIOSCIENCES LIMITED, priority 2018, dated 2024):

Biological target: human Kv1.3 (Homo sapiens (Human), UniProt P22001)
Assay: Kv1.3 potency evaluation, automated patch clamp electrophysiology (QPatch HT) in CHO-Kv1.3 cells
Format: cell-based
Details: whole-cell QPatch HT, % inhibition of charge, step to +30 mV, four concentrations, N≥3 cells, read-out: hKv1.3 IC50
Source text: Biological Assays Kv1.3 Potency Evaluation Electrophysiology Recordings
A proprietary Chinese hamster ovary cell line stably expressing exogenous human a-subunits of Kv1.3 (CHO-Kv1.3) channel, validated biophysically and pharmacologically in house, was used to assess the ability of test compounds to block Kv1.3 currents using automated patch clamp electrophysiology. The QPatch HT system (Sophion Bioscience A/S, Denmark) was used with the conventional whole-cell configuration. This system is an automated, chip-based planar patch clamp device allowing for up to 48 parallel independent experiments in one experimental assay run. Cells are added to each well and drawn by suction onto a small aperture to obtain a Gigaohm seal between the cell membrane and treated silicon surface, and whole-cell recordings initiated after access is achieved by suction and/or voltage pulses. The QPatch HT uses static perfusion, whereby a small volume of recording solution or drug is added to a reservoir on the chip and the solution perfuses across the cell through quartz-lined microfluidic channels; this solution is removed by capillary action when the next sample application is made.
CHO-Kv1.3 cells were prepared for experiments by dissociation from T175 cell culture flasks using trypsin-EDTA (0.05%), cells were kept in serum free media in the cell hotel on board the QPatch HT. These cells were sampled, washed and re-suspended in extracellular recording solution by the QPatch HT immediately before application to the recording well site on the chip. Experiments were performed using the following solutions; extracellular solution contained (in mM); 150 NaCl, 10 KCl, 1 MgCl2, 3 CaCl2), 10 Glucose and 10 HEPES (pH 7.4, NaOH) and intracellular solution contained (in mM); 20 KCl, 120 KF, 10 HEPES, 10 EGTA, 5 ATP (pH 7.2, KOH).
The potency (Inhibitory Concentration 50%, IC50) of synthesized compounds against Kv1.3 was determined from concentration-response relationships established by cumulatively applying four escalating concentrations of test compound to an individual cell and a minimum of N≥3 individual cells of data per compound were used to generate the IC50 value.
On achieving the whole-cell configuration; two additions of vehicle (0.1-0.3% DMSO v/v) were applied to each cell in two bolus additions with a two minute recording period between each addition (four minutes total recording time). Following the vehicle period, four concentrations of test sample were applied as two bolus additions per test concentration at two minute intervals, and the effects on current measured during the four minute recording period.
Currents were elicited using a single step voltage protocol. From a holding potential of −80 mV the cell is depolarised to +30 mV (500 ms) resulting in an outward current before finally repolarising the cell by returning to the holding potential. The command voltage was applied at a frequency of 0.067 Hz throughout the duration of the experiment. For each sweep of the voltage protocol membrane current and the passive properties of the individual cells were recorded by QPatch assay software (version 5.2). Cursors were placed to calculate the charge (integral of the current recorded during cursor interval) between 2-490 ms (0.4-99%) of the 500 ms step to +30 mV.
The % inhibition of charge for each test concentration application period was calculated as the reduction in mean charge at the end of each concentration test period relative to the charge value measured at the end of the control (i.e. vehicle) period. Sigmoidal concentration response curves (four parameter logistic curve) were fitted to the % inhibition rom which the IC50 was determined. Curve fits were constrained at 0 and 100%.

Sequence of human Kv1.3 (P22001 whole entry): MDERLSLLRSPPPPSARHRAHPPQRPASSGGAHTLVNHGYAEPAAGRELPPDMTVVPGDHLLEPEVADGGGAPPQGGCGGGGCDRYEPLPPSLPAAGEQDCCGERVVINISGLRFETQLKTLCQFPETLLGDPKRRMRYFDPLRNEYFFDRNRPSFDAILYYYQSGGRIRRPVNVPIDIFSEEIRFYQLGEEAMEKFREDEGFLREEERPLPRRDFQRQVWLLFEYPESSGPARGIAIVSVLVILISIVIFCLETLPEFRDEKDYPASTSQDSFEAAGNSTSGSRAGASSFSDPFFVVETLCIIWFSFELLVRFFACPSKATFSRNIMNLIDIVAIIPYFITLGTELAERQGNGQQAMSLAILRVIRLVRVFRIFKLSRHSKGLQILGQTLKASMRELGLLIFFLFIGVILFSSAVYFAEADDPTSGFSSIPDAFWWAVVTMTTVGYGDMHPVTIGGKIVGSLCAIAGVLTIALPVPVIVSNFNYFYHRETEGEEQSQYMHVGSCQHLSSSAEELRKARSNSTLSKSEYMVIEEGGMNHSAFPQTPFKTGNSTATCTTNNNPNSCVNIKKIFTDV

Structure (SMILES) | IC50 [nM]
CC1(C)N=C(C23CC(N(Cc4ccc(Cl)c(F)c4)S(=O)(=O)c4ccccc4)(C2)C3)N[C@H]1C(=O)N1C2CCC1CC(F)(F)C2 (mixture of isomers) [Example 77] | 60
CN(CC(C)(C)F)C(=O)[C@@H]1NC(C23CC(N(Cc4ccc(Cl)c(F)c4)S(=O)(=O)c4ccccc4)(C2)C3)=NC1(C)C (mixture of isomers) [Example 95] | 64
CC1(C)N=C(C23CC(N(Cc4ccc(Cl)c(F)c4)S(=O)(=O)c4ccccc4)(C2)C3)N[C@H]1C(=O)N1CCC1 (mixture of isomers) [Example 282] | 706
CC1N=C(C23CC(N(Cc4ccc(C(F)(F)F)cc4)S(=O)(=O)c4ccc(F)cc4)(C2)C3)N[C@@]1(C)C(=O)NCC1CCC1 (mixture of isomers) [Example 245] | 253
CC(C)NC(=O)[C@@]1(C)CN=C(C23CC(N(Cc4ccccc4)S(=O)(=O)c4ccccc4)(C2)C3)N1 (mixture of isomers) [Example 258] | 362
CN(CC1CC(F)(F)C1)C(=O)[C@@H]1NC(C23CC(N(Cc4ccc(Cl)c(F)c4)S(=O)(=O)c4ccccc4)(C2)C3)=NC1(C)C (mixture of isomers) [Example 133] | 78
CN(C(=O)[C@@H]1NC(C23CC(N(Cc4ccc(Cl)c(Cl)c4)S(=O)(=O)c4ccccc4)(C2)C3)=NC1(C)C)C12CC(C1)C2 (mixture of isomers) [Example 17] | 35
CC(C)NC(=O)[C@@]1(C)CN=C(C23CC(N(Cc4ccc(C(F)(F)F)cc4)S(=O)(=O)c4ccc(F)cc4)(C2)C3)N1C (mixture of isomers) [Example 213] | 152
CC1(C)N=C(C23CC(N(Cc4ccc(Cl)c(Cl)c4)S(=O)(=O)c4ccccc4)(C2)C3)N[C@H]1C(=O)NC1CC1C(F)(F)F (mixture of isomers) [Example 189] | 112
CC1(C)N=C(C23CC(N(Cc4ccc(Cl)c(F)c4)S(=O)(=O)c4ccccc4)(C2)C3)N[C@H]1C(=O)N1CC(F)(F)C1 (mixture of isomers) [Example 55] | 50
CC1(C)N=C(C23CC(N(Cc4ccc(Cl)c(F)c4)S(=O)(=O)c4ccccc4)(C2)C3)N[C@H]1C(=O)N1CCC2(C1)CC(F)(F)C2 (mixture of isomers) [Example 144] | 87
CC(F)(F)CCS(=O)(=O)N(Cc1ccc(Cl)c(Cl)c1)C12CC(C3=NC(C)(C)[C@H](C(=O)N4CCC(F)(F)CC4)N3)(C1)C2 (mixture of isomers) [Example 176] | 104
CC(C)(C)NC(=O)[C@@H]1NC(C23CC(N(Cc4ccc(Cl)c(F)c4)S(=O)(=O)c4ccccc4)(C2)C3)=NC1(C)C (mixture of isomers) [Example 175] | 104
C[C@@]1(C(=O)NCC2CCC2)CN=C(C23CC(N(Cc4ccc(C(F)(F)F)cc4)S(=O)(=O)c4ccc(F)cc4)(C2)C3)N1 (mixture of isomers) [Example 247] | 262
CC(NC(=O)[C@@]1(C)CN=C(C23CC(N(Cc4ccc(C(F)(F)F)cc4)S(=O)(=O)c4ccc(F)cc4)(C2)C3)N1)C1CCC1 (mixture of isomers) [Example 275] | 571
CC(NC(=O)[C@@]1(C)CN=C(C23CC(N(Cc4ccc(C(F)(F)F)cc4)S(=O)(=O)c4ccc(F)cc4)(C2)C3)N1)C1CCC1 (mixture of isomers) [Example 238] | 221
CC1(C)N=C(C23CC(N(Cc4ccc(Cl)c(F)c4)S(=O)(=O)c4ccccc4)(C2)C3)N[C@H]1C(=O)N1CCC2(CC2)C1 (mixture of isomers) [Example 57] | 50
CC1(C)N=C(C23CC(N(Cc4ccc(C(F)(F)F)cc4)S(=O)(=O)c4ccc(F)cc4)(C2)C3)N[C@@]1(C)C(=O)NCCC(F)(F)F (mixture of isomers) [Example 255] | 341
C[C@]1(C(=O)N2CC3CC3C2)CN=C(C23CC(N(Cc4ccc(C(F)(F)F)cc4)S(=O)(=O)c4ccc(F)cc4)(C2)C3)N1 (mixture of isomers) [Example 234] | 211
CN(C(=O)[C@@H]1NC(C23CC(N(Cc4ccc(Cl)c(F)c4)S(=O)(=O)c4ccccc4)(C2)C3)=NC1(C)C)C12CC(C1)C2 (mixture of isomers) [Example 33] | 43
CC1(C)N=C(C23CC(N(Cc4ccc(Cl)c(F)c4)S(=O)(=O)c4ccccc4)(C2)C3)N[C@H]1C(=O)N1CC(F)(F)C(F)(F)C1 (mixture of isomers) [Example 61] | 51

Other lines, results leading:

IC50 [nM] | Structure (SMILES)
68 | CC1(C)N=C(C23CC(N(Cc4ccc(Cl)c(Cl)c4)S(=O)(=O)CCC(F)F)(C2)C3)N[C@H]1C(=O)NCC1CC1(F)F (mixture of isomers) [Example 103]
98 | CC1(C)N=C(C23CC(N(Cc4ccc(Cl)c(F)c4)S(=O)(=O)c4ccccc4)(C2)C3)N[C@H]1C(=O)NCC1(C(F)(F)F)CCC1 (mixture of isomers) [Example 162]
45 | CC1(C)N=C(C23CC(N(Cc4ccc(Cl)cc4)S(=O)(=O)c4ccccc4)(C2)C3)N[C@H]1C(=O)NC[C@H]1CC1(F)F (mixture of isomers) [Example 39]
68 | CC1(C)N=C(C23CC(N(Cc4ccc(Cl)cc4)S(=O)(=O)CCCCF)(C2)C3)N[C@H]1C(=O)NCCC(F)(F)F (mixture of isomers) [Example 102]
61 | CCCCCS(=O)(=O)N(Cc1ccc(Cl)cc1)C12CC(C3=NC(C)(C)[C@H](C(=O)NCCC(F)(F)F)N3)(C1)C2 (mixture of isomers) [Example 80]
49 | CC(C)(C)CNC(=O)[C@@H]1NC(C23CC(N(Cc4ccc(Cl)c(F)c4)S(=O)(=O)c4ccccc4)(C2)C3)=NC1(C)C (mixture of isomers) [Example 53]
136 | CC1(C)N=C(C23CC(N(Cc4ccc(Cl)c(Cl)c4)S(=O)(=O)CCC(F)F)(C2)C3)N[C@H]1C(=O)NCC1CC(F)(F)C1 (mixture of isomers) [Example 205]
74 | CC1(C)N=C(C23CC(N(Cc4ccc(Cl)c(F)c4)S(=O)(=O)c4ccccc4)(C2)C3)N[C@H]1C(=O)N(CCC(F)(F)F)C1CC1 (mixture of isomers) [Example 119]
205 | CC1(C)N=C(C23CC(N(Cc4ccc(Cl)cc4)S(=O)(=O)CC4CC(F)(F)C4)(C2)C3)N[C@H]1C(=O)NCCC(F)(F)F (mixture of isomers) [Example 231]
95 | CC(F)(F)CCS(=O)(=O)N(Cc1ccc(Cl)c(Cl)c1)C12CC(C3=NC(C)(C)[C@H](C(=O)NCC4CC(F)(F)C4)N3)(C1)C2 (mixture of isomers) [Example 158]
60 | CC1(C)N=C(C23CC(N(Cc4ccc(Cl)c(F)c4)S(=O)(=O)c4ccccc4)(C2)C3)N[C@H]1C(=O)NCCC(F)F (mixture of isomers) [Example 79]
30 | CC1(C)N=C(C23CC(N(Cc4ccc(Cl)cc4)S(=O)(=O)c4ccccc4)(C2)C3)N[C@H]1C(=O)NCCC(F)(F)F (mixture of isomers) [Example 2]
110 | CC1(C)N=C(C23CC(N(Cc4ccc(C(F)(F)F)cc4)S(=O)(=O)c4ccc(F)cc4)(C2)C3)NC1C(=O)NCC1CC(F)(F)C1 (stereo not drawn) [Example 186]
72 | CC1(C)N=C(C23CC(N(Cc4ccc(Cl)cc4)S(=O)(=O)c4ccccc4)(C2)C3)N[C@H]1C(=O)NCC(F)(F)C(F)(F)F (mixture of isomers) [Example 112]
27 | CC1(C)N=C(C23CC(N(Cc4ccc(Cl)cc4)S(=O)(=O)c4ccoc4)(C2)C3)N[C@H]1C(=O)NCCC(F)(F)F (mixture of isomers) [Example 8]
66 | CC1(C)N=C(C23CC(N(Cc4ccc(F)cc4)S(=O)(=O)c4ccccc4)(C2)C3)NC1C(=O)NCCC(F)(F)F (stereo not drawn) [Example 97]
85 | CCCS(=O)(=O)N(Cc1ccc(Cl)c(Cl)c1)C12CC(C3=NC(C)(C)[C@H](C(=O)NCC4(C(F)(F)F)CC4)N3)(C1)C2 (mixture of isomers) [Example 143]
75 | CC1(C)N=C(C23CC(N(Cc4ccc(C(F)F)cc4)S(=O)(=O)c4ccccc4)(C2)C3)N[C@H]1C(=O)NCCC(F)(F)F (mixture of isomers) [Example 122]
